Data from patent US11357825B2, “Means for treating cardiovascular disease” (Universitaetsklinikum Hamburg-Eppendorf, priority 2017, dated 2022).

Experiments:
β1-AR = β1-AR (Homo sapiens, UniProt P08588); conditions: HEK293 cells stably expressing β1-AR; pretreatment 20 min with 30 nM; ISO 0.1 nM
From the text: Experimental data with HEK293 cells stably expressing β1-AR and the cAMP biosensor Epac1-camps.

[1] = system: adult rat ventricular cardiomyocytes; experiment: cell contractility assay, edge detection method (IonOptix); format: cell-based; conditions: atenolol 100 nM, 20 min; 1 Hz pacing; with and without 10 nM isoproterenol
Experimental: FIG. 7. Experimental data for cardiomyocyte hypertrophy (A) and cell contractility (B) assays performed with freshly isolated adult rat ventricular cardiomyocytes (CM) using atenolol coated nanoparticles (Atenolol NP) and control nanoparticles.
Freshly isolated adult rat ventricular CMs were incubated for 20 min with atenolol (100 nM), atenolol coated or control nanoparticles (both at 30 nM) and cell contractility was measured using edge detection method (IonOptix) at 1 Hz pacing frequency with and without stimulation with 10 nM isoproterenol.

Sequence of β1-AR (P08588 whole entry): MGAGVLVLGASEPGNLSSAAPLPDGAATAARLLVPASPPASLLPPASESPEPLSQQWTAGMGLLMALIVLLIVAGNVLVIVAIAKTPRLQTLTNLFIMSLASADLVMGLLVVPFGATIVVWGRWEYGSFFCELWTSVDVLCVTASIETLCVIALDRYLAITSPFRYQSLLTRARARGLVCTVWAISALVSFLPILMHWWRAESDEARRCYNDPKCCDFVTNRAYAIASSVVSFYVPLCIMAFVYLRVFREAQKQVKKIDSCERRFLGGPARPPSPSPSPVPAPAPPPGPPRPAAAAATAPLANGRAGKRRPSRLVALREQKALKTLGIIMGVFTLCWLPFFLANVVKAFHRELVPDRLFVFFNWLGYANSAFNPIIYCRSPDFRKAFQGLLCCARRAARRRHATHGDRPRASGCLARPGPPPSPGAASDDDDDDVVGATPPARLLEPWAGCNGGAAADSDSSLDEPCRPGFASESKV

Question: `CC(C)NCC(O)COc1ccc(CC(N)=O)cc1` (centres unmarked) [atenolol] was tested. Which “inhibition of ISO-induced cAMP increase (CFP/YFP ratio)” value (β1-AR) did it give?
Answer: Its value is “efficacious in blocking β1-AR dependent cAMP synthesis”.

Question: What about the cell contractility [1] of the same compound?
Answer: The cell contractility was “decrease cell contractility”.
